According to US20230277669A1, “USES OF UROLITHINS” (Amazentis SA, priority 2022, published 2023):

Columns and labels:
APTK tumors = assay: Oral UA in Pink1-/- mice with s.c. APTK tumors; assay type: in vivo
Method: (§1) (FIG. 4A) Scheme of CD3+ T-cell activation and analysis for various timepoints in order to investigate mitophagy induction in vitro. (FIG. 4B) Analysis of mitochondrial membrane potential within CD8+ T cells, with TMRM^lo representing cells with low mitochondrial membrane potential. Analysis was performed six hours after stimulation with aCD/aCD28 stimulation beads at the presence of the indicated treatments. N=4 per group, *p < 0.05 by Mann Whitney U test. One of two independent experiments are shown. (FIG. 4C) Representative flow histogram and quantification of lysosome formation in CD8+ cells six hours after in vitro stimulation. MFI shown relative to DMSO controls, n=4. Data are normalised mean ± SD, statistical analysis by two-sided t-test. One out of two independent experiments are shown. (FIG. 4D) Mitotracker Red staining of in vitro stimulated CD8+ cells after 24 hours of Urolithin A (UA25 n=6; UA50 n=6) or vehicle control treatment (DMSO: n=4). A representative flow histogram depicting identification of Mitotracker^hi cells is shown. Data are mean ± SD, statistical analysis was performed by two-sided t-test (*p < 0.05; ***p <0.001; ****p < 0.0001). Experiment was repeated twice. (FIG. 4E) Subset-specific identification of Mitotracker red accumulation after 24 hours of in vitro stimulation either with vehicle control (DMSO) or 50 µM Urolithin A (n=5). Subsets were identified was depicted in the FIGS. 7-9. Data are mean ± SD, statistical analysis by two-sided t-test (* p<0.05, *** p<0.001 and **** p<0.0001). (FIG. 4F) qPCR analysis of various autophagy/mitophagy associated genes of in vitro activated CD3+ cells, 24 h after activation (n=3). Data are ± SEM, statistical analysis was performed by two-sided t-test (*p < 0.05,**p < 0.01). Overall p value is given for the comparison over the entire panel of genes after two-way ANOVA test. (FIG. 4G) Western blot of Parkin protein expression in UA or DMSO (n=3) treated cells after 24 h. Cells were stimulated at the presence of plate-bound aCD3/aCD28 antibodies. […] (FIG. 4H) CD8+ cells from Pink1^-/- mice display deficient mitophagy upon UA treatment in vitro: Lysosome formation in CD8+ of Pink1^-/- mice as assessed by Lysotracker staining 6h post stimulation at the presence of UA or DMSO (n=4). Data are mean ± SD, one out of two independent experiments are shown. (FIG. 4I) CD8+ cells from Pink1^-/- mice display deficient mitophagy upon UA treatment in vitro: Mitotracker red staining of Pink1^-/- CD8+ stimulated in vitro for 48 h, either in the presence of UA or DMSO (n=4). Percentage of Mitotracker^hi CD8+ cells are shown. Data are mean ± SD and acquired via flow cytometry. […] Quantification of TCF1^hi cells among CD8. (FIG. 4N) Quantification of PD1^hi cells among CD8. (FIG. 4O) Quantification of and Tim3^hi cells among CD8. […]

T cells = assay: RNA sequencing of T cells exposed to DMSO or UA; assay type: cell-based; details: 48 hours
Method: (FIG. 5B) RNAseq expression heatmap of selected genes: Genes associated with immune checkpoints, effector molecules and genes encoding for leukocyte migration. (FIG. 5C) Expression of genes associated with T cell memory vs effector fate decisions. Data underwent z-score normalization for display (n=3 per group). […] T cells were stimulated for 48 h in vitro at the presence of the indicated treatments. Data are mean ± SD (n=4/4/3), statistical analysis was performed by two-sided t-test (p***<0.01; p****0.0001). (FIG. 5E) Quantification of TSCM formation within CD8+ cells after 48 h of in vitro stimulation under various treatment conditions, including TCF1 inhibition by ICG001 (DMSO, UA, TCF1i n=4; TCFi+UA n=3). Data are mean ± SD, statistical analysis was performed by two-sided t-test (*p < 0.05; n.s. not significant). One of two independent experiments are shown. (FIG. 5F) Western blot analysis of β-Catenin phosphorylation status in CD3+ cells stimulated via plate-bound aCD3/aCD28 antibodies for 6h. N=3 per group. (FIG. 5G) Cytosolic fractionation of CD3+ cells stimulated for six hours in the presence of Urolithin or DMSO control (c= cytosolic, m = mitochondrial fraction). Experiment was repeated twice.
(FIG. 8A) Ingenuity pathway upstream regulator analysis of UA treated T cells. Assessed from RNAseq data. Plausible upregulation is depicted by z score, significance is shown on the overlying dot spot. Genes with a log2 fold change of 1 and p<0.05 were initially considered.
To explore the downstream events linking mitophagy to TSCM formation, we performed RNA sequencing to globally assess differential gene expression in T cells exposed for 48 hours to either DMSO or UA in vitro. […] Indeed, when we applied ICG001 to pharmacologically block TCF-1, UA-induced TSCM formation in vitro was abrogated (FIGS. 5D-E).

CD3+ cells = assay: Western blot, fractionation and immunofluorescence of stimulated CD3+ cells; assay type: cell-based
Method: as §1

muscle function = details: urolithin A-high diet, cited from earlier work
C.elegans = details: in vivo; cited from earlier work

In the case of `O=c1oc2cc(O)ccc2c2ccc(O)cc12` [Urolithin A], the “ex vivo cytokine release of CD8+ TIL” value (APTK tumors; PMA and Ionomycin restimulation) is reported as “did not exhibit differences”, the “TCF-1 expression in CD8+ TIL” value (APTK tumors; UA or control diet) is reported as “did not exhibit differences” and the “exhaustion markers in CD8+ TIL” value (APTK tumors; UA or control diet) is reported as “did not exhibit differences”. The “tumor suppressive effect of UA (growth curve)” value (APTK tumors; UA-rich or control diet) was “abrogated the tumor suppressive effect of UA”, the “effector fate associated genes Prdm1 and Id2” value (T cells) was “reduced expression” and the “expression of Cd27, Ccr7 and adhesion genes” value (T cells) was “enhancing expression”. The “expression of genes coding for immune checkpoints and effector molecules” value (T cells) was “reduced the expression”, the “genes involved in memory formation (Tcf7, Bach2, Bcl6)” value (T cells) was “special enrichment” and the “phosphorylation of Stat1” value (CD3+ cells; 6 h, compared to vehicle controls) was “equal phosphorylation of Stat1”. For the same molecule, the “Parkin protein expression (Western blot)” value (CD3+ cells; 24 h) was “stabilized Parkin protein expression”, the b-catenin phosphorylation (CD3+ cells; after 6 hours) was “marked decrease” and the “Pgam5 localization (sub-cellular fractionation, immunofluorescence)” value (CD3+ cells; six hours) was “rapidly released into the cytoplasma”. For the same molecule, the “recovery of muscle function” value (muscle function; mice with Duchenne muscular dystrophy) was “recovery of muscle function”, the muscle function (muscle function) was “superior muscle function” and the lifespan (C.elegans) was “prolonged lifespan”. For the same molecule, the mitochondrial content (C.elegans) was “higher mitochondrial content”.
